The text below walks through data of US10065927B2, “α-ketoacylic isoniazid compounds, process for producing said compounds, use of the compounds in the treatment of tuberculosis” (priority 2015, dated 2018).

Converted amounts (≈) assume the structure as drawn.

In the assay the test system is M. tuberculosis isoniazid resistant strain. Kind of assay: microbe, parasite or virus in culture. The note with it: Mycobacterium tuberculosis. Format: cell-based.

Turning to `CC(=O)Nc1ccccc1C(=O)C(=O)NNC(=O)c1ccncc1` [Compound 2, N-(2-(2-(2-Isonicotinoylhydrazine)-2-Oxoacetyl)Phenyl) Acetamide], the MIC was found to be 19.2 µM (≈ 6.26 µg/mL).
To `NNC(=O)c1ccncc1` [Isoniazid] belongs over 73 µM.
